Data: patent US20090088323A1, “Compositions with cyclopropenes and adjuvants” (priority 2004, published 2009)

Key:
[1] = system: Tomatoes (Rutgers 39 Variety); assay: Tomato epinasty test (foliar spray to run off, then ethylene exposure); format: in vivo
Experimental: Tomato epinasty tests were performed as follows:
Two seeds were place in each pot. Plants that had expanded first true leaves and were between 3 and 5 inches high were used for the tomato epinasty test.
To conduct the assay, the plants were sprayed-to run off with the test 1-MCP foliar spray and allowed to dry for 4 hours in sunlight These operations were performed in a ventilated area away from the plants growing in the greenhouse so there would not be any unintended treatment to growing plants destined for later experiments.
(§1) The 1-MCP treated plants and both treated and untreated controls were placed into an SLX controlled-atmosphere shipping box and sealed. To the box, ethylene was injected through a septum, which gave a concentration of 14 ppm. The plants were held sealed for 12-14 hours in the dark with ethylene in the atmosphere. At the end of ethylene treatment, the box was opened and scored for epinasty. Scoring for epinasty was accomplished by using the following scoring system for each pot. • 1. 0% no epinasty (100% control) • 2. 20% A couple leaves show some drooping (80% control) • 3. 50% Plants show 50% of full response. Not all leaves need to show effect. (50% control) • 4. 80% Almost all leaves drooping and some show underside of leaf exposed on top. (20% control) • 5. 100% Leaves completely drooping and the underside of the leaf exposed from above. (0% control)
The score of each pot is recorded. The average of 6 or 8 pots is averaged to get a score. The percentage improvement is calculated by interpolating the percentage improvement from the control water (i.e., no additives) 1-MCP treatment.
Tomato epinasty tests were conducted using a formulation that included water, a 1-MCP α-CD complex, and sodium salt of EDTA. […] The amount of sodium salt of EDTA in each formulation was 100 ppm. In some formulations, further ingredients were included, as described in the examples below.
Tomato epinasty tests were conducted using a formulation that included water; a 1-MCP α-CD complex that contained 0. […] The amount of 1-MCP α-CD complex was chosen so that the spray formulation had 1.2 ppm of 1-MCP. The amount of sodium salt of EDTA was kept at 50 ppm in the liquid. Also included in the spray formulations were various silicone oils (0.1% by weight based on the weight of the spray).
The amount of 1-MCP α-CD complex was chosen so that the spray formulation had 1.2 ppm of 1-MCP. The amount of sodium salt of EDTA was kept at 50 ppm. Also included in the spray formulations were various silicone oils at 0.1% by weight based on the weight of the spray formulation and sodium dioctylsufosuccinate surfactant at 0.05% by weight based on the weight of the spray formulation.

[2] = system: Tomatoes (Rutgers 39 Variety); assay: Tomato epinasty test, plants sprayed in spray hood with motorized track sprayer; format: in vivo; conditions: 1-MCP spray rate 20 grams/hectare, no adjuvant
Experimental: Tomatoes (Rutgers 39 Variety Harris Seeds No 885 Lot 37729-A3) were grown in 2 ½″ square pots filled with a commercial potting mix. Two seeds were place in each pot. Plants that had expanded first true leaves and were between 3 and 5 inches high were used for the tomato epinasty test.
as §1
The score of each pot is recorded. The average of 6 or 8 pots is averaged to get a score. The percentage improvement is calculated by interpolating the percentage improvement from the control water (i.e., no additives) 1-MCP treatment. […]

For CC1=CC1 [1-MCP, 1-methylcyclopropene], the “% Control of Epinasty” value ([1]; 1.2 ppm 1-MCP, silicone oil 0.1 weight % / sodium dioctylsulfosuccinate 0.05 weight % (0 for control), 50 ppm EDTA sodium salt) was 8%, the “% Control of Epinasty” value ([1]; 1.2 ppm 1-MCP, silicone oil 0.1 weight % in spray (0 for control), 50 ppm EDTA sodium salt) was 8% and the “% Control of Epinasty” value ([1]; 70 ppb 1-MCP (as α-CD complex), no adjuvants, 100 ppm EDTA sodium salt, 14 ppm ethylene 12-14 h) was 10%. The “% Control of Epinasty” value ([1]; 140 ppb 1-MCP (as α-CD complex), no adjuvants, 100 ppm EDTA sodium salt) was 15%, the “% Control of Epinasty” value ([1]; 280 ppb 1-MCP (as α-CD complex), no adjuvants, 100 ppm EDTA sodium salt) was 35% and the “% Control of Epinasty” value ([1]; 1400 ppb 1-MCP (as α-CD complex), no adjuvants, 100 ppm EDTA sodium salt) was 85%. For the same molecule, the “% Control of Epinasty” value [2] was 26%.
